The cell viability is a read-out of living cells in per cent, often relative to untreated cells. A lower cell viability goes with more harm to the cells.

These results are taken from patent US20200199537A1, “LIVER ORGANOID COMPOSITIONS AND METHODS OF MAKING AND USING SAME” (Children's Hospital Medical Center, priority 2017, published 2020).

Data set [1] has as its system CLF excretion into iPSC-liver organoids. Conditions: human.
Description: To test the clinical relevance of organoid based cholestatic phenotyping method, Applicant employed pharmacogenomics insights into Applicant's system to address the fidelity question.
The subject of data set [2] is bile transport activity (efflux of fluorescein diacetate) in human liver organoids.
Protocol: To quantify the inhibitory potential for FD excretion, Applicant developed a simple but robust quantification method by determining the fluorescent intensity ratio between outside and inside the organoid by image J (FIG. 4, panel B).
Fluorescein diacetate was used for evaluating bile transport activity in organoids. Around Day 25, the organoids were rinsed with PBS, and, fluorescein diacetate was treated to organoids in medium. […] After treatment or injection of fluorescein diacetate, images were captured on fluorescent microscopy BZ-X710 (Keyence). […] Changes in brightness or contrast during processing were applied equally across the entire image.
A further data set concerns the target MRP2 (Homo sapiens, UniProt Q92887). As to conditions: previously reported; cited from earlier work.
The test system of data set [3] is lipotoxic human liver organoids. As to the kind of experiment: Evaluation of viability in organoids on vulnerable (lipotoxic, oleic acid) condition. The format is cell-based. How it is done:
Next, 50 μM of Troglitazone was treated with or without 50 μM NAC for 24 h. […] Images were captured sequentially using fluorescent microscopy BZ-9000.

Data set [4] deals with human liver organoids. Conditions: for cell viability: human, 50 μM.
Data set [5] deals with human liver organoids. Briefly: Lipid accumulation in organoids after oleic acid treatment. The data set is classed as cell-based. Conditions: 3 days after treatment, 800 μM. The procedure: Images were captured sequentially using fluorescent microscopy BZ-9000. […] The following regents or kits were used: BODIPY® 493/503 for lipids (Thermo Fisher Scientific), and SiR Actin Kit for cytoskeleton (USA Scientific, FL, USA), CellROX® Green Reagent for ROS (Fisher Scientific), TMRM (Thermo Fisher Scientific) for mitochondria. […] ROS production, mitochondria size and number were analyzed by IMARIS8.

Molecules are shown by their SMILES. Like-named read-outs stand apart in the source and are kept apart here.

Sequence of MRP2 (Q92887 whole entry): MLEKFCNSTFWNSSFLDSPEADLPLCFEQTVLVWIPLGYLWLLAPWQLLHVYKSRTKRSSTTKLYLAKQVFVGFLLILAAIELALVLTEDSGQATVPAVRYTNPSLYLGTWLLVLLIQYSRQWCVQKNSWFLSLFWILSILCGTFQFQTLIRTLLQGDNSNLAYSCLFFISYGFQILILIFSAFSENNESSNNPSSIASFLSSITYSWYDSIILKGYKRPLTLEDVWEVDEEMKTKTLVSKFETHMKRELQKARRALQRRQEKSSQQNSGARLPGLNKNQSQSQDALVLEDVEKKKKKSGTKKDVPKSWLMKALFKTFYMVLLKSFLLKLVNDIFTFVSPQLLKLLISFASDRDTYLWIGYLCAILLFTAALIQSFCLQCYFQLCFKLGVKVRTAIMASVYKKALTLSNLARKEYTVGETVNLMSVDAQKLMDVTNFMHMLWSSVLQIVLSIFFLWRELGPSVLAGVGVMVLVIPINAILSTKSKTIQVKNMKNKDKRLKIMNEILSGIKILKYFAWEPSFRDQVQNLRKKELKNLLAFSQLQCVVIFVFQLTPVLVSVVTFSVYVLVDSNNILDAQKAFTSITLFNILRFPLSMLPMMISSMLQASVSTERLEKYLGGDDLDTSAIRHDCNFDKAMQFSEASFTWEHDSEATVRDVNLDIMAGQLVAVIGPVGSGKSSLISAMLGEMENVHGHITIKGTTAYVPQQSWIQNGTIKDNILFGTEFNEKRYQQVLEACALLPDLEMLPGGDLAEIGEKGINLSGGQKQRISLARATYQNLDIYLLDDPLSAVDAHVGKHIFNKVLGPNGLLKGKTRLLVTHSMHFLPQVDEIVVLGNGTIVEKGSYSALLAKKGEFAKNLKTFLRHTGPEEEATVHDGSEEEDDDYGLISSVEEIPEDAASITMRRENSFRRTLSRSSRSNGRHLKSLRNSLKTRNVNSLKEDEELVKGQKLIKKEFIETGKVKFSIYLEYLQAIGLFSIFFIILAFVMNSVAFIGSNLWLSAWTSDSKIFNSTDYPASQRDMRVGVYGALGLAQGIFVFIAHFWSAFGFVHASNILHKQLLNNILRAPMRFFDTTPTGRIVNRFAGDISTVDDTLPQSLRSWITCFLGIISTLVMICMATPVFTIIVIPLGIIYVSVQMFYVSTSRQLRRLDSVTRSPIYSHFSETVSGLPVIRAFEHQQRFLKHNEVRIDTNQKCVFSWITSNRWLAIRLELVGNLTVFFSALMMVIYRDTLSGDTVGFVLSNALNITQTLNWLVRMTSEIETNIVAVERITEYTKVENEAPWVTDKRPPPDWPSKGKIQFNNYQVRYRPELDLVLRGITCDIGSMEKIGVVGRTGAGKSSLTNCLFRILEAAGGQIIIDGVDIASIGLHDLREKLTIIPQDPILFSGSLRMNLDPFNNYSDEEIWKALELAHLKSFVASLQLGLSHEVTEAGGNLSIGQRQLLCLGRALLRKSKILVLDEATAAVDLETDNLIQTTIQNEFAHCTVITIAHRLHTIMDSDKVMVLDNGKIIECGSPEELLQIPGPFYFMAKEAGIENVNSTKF

Turning to `COc1ccccc1Oc1c(NS(=O)(=O)c2ccc(C(C)(C)C)cc2)nc(-c2ncccn2)nc1OCCO` [Bosentan], the “specificity of drug induced cholestasis to CYP2C9*2 iPSC lines” value in data set [1] was “specific to CYP2C9 poor metabolizer donor-derived HLO”. Also, the “efflux of FD” value in data set [2] is “significantly decreased”. The “export by efflux transporter MRP2” value on MRP2 was “mediates export”.

On to `CC(=O)N[C@@H](CS)C(=O)O` [NAC, N-acetylcysteine], for which, in data set [3] (lipotoxic condition, 50 μM Troglitazone with 50 μM NAC, 24 h), the “cell viability (rescue from Troglitazone toxicity)” value is recorded as “significantly improved”.

For `CCc1nn(CCCN2CCN(c3cccc(Cl)c3)CC2)c(=O)n1CCOc1ccccc1` [Nefazodone], the “cell viability relative to TOL, DICLO and BOS” value with human liver organoids [4] is “significantly lowered”. The “efflux of FD” value in data set [2] is on record as “significantly decreased”.

Take `CN(CCOc1ccc(CC2SC(=O)NC2=O)cc1)c1ccccn1` (centres unmarked) [Rosiglitazone]: the “vulnerability of steatotic organoids to drug toxicity” value in data set [3] was “vulnerable”.

As for `Cc1c(C)c2c(c(C)c1O)CCC(C)(COc1ccc(CC3SC(=O)NC3=O)cc1)O2` (centres unmarked) [Troglitazone], the “cell viability relative to TOL, DICLO and BOS” value in the data set with human liver organoids [4] was “significantly lowered”. Also, the cell viability in the data set on human liver organoids [4] (24 h) stood at 85%; with human liver organoids [4] (72 h), 67%. The “cell viability compared to control” value in data set [3] (lipotoxic condition (800 μM oleic acid 3 days), 50 μM drug, 24 h) is −40%. Besides, the “organoid morphology after treatment” value in data set [3] (lipotoxic condition, 24 h) is on record as “massive fragmentation of organoids”. Moreover, in data set [2], the “efflux of FD” value is listed as “significantly decreased”.

With `CCCCCCCC/C=C\CCCCCCCC(=O)O` [oleic acid], the “lipid accumulation in organoids” value in the data set on human liver organoids [5] is recorded as “intense”.
